ChEMBL document CHEMBL5113375, “Development of Mcl-1 inhibitors for cancer therapy” (Eur J Med Chem, 2021)
Values joined by “and” are separate entries in the source; they are usually repeats but may differ in a detail not shown here. Identical values can stand only once.

Tests used:
[1] = molecular target: T1, Induced myeloid leukemia cell differentiation protein Mcl-1/BH3-interacting domain death agonist (Homo sapiens, UniProt Q07820); test: Binding affinity to Mcl-1/Bid (unknown origin) assessed as inhibition constant by fluorescence polarization assay; type: protein assay
T1 sequence (Q07820 whole entry, one chain of several, the tested form may be a part): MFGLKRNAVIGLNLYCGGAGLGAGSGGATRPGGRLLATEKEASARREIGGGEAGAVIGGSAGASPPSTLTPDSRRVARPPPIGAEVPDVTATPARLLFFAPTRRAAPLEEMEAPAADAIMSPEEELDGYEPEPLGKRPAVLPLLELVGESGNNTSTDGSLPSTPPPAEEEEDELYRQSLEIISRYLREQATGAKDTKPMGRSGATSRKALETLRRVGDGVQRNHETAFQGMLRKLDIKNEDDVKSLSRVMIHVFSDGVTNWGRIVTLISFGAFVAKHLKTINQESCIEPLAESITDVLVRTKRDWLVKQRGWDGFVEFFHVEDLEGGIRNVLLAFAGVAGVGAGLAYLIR

[2] = molecular target: T2, BCL2/BID (Homo sapiens, UniProt P10415); test: Binding affinity to Bcl-2 /Bid (unknown origin) assessed as inhibition constant by fluorescence polarization assay; type: protein assay
T2 sequence (P10415 whole entry, one chain of several): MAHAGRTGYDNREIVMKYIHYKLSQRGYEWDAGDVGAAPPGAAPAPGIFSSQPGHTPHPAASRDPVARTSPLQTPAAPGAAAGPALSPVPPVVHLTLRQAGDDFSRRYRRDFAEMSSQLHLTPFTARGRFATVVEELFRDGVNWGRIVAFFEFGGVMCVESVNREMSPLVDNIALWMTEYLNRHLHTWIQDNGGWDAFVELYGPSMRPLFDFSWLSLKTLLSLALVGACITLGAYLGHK

[3] = molecular target: T3, Bcl-xL/Bcl-2-like protein 11 (Homo sapiens, UniProt Q07817); test: Binding affinity to Bcl-xL/Bim (unknown origin) assessed as inhibition constant by fluorescence polarization assay; type: protein assay
T3 sequence (Q07817 whole entry): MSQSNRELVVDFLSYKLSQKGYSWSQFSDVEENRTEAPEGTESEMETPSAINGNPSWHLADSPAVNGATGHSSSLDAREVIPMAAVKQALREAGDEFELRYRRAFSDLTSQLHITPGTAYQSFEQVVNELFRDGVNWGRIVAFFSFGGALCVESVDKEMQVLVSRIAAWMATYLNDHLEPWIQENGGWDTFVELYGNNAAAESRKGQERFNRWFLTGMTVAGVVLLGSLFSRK
T3 sequence (O43521 whole entry, further chain): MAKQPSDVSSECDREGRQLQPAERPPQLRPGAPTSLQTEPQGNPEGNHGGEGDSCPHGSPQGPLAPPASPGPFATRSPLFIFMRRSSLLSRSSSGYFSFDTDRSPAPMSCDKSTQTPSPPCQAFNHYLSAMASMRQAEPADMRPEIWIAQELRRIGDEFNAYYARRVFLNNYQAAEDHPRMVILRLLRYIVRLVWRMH

[4] = molecular target: T4, BCL2L2/BID (Homo sapiens, UniProt P55957+Q92843); test: Binding affinity to Bcl-W/Bid (unknown origin) by fluorescence polarization assay; type: protein assay
T4 sequence (Q92843 whole entry): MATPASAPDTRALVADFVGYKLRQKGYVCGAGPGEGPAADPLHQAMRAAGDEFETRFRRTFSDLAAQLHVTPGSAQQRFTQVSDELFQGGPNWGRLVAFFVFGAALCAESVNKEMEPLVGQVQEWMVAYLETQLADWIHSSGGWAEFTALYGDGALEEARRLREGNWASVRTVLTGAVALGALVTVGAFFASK
T4 sequence (P55957 whole entry): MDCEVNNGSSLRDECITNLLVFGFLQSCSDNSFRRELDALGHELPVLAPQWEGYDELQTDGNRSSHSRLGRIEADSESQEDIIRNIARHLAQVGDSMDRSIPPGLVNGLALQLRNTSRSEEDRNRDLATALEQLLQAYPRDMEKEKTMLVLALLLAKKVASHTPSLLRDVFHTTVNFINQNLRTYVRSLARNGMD

[5] = molecular target: Apoptosis regulator Bcl-2/Bcl-2 homologous antagonist/killer (Homo sapiens, UniProt P10415+Q16611); test: Inhibition of Bcl-2/Bak (unknown origin); type: protein assay
Chain of Apoptosis regulator Bcl-2/Bcl-2 homologous antagonist/killer (P10415 whole entry, one chain of several): as the sequence (P10415 whole entry, one chain of several) above

[6] = molecular target: T5, BCL2A1/BAK1 (Homo sapiens, UniProt Q16548+Q16611); test: Inhibition of Bfl-1/Bak (unknown origin); type: protein assay
T5 sequence (Q16611 whole entry): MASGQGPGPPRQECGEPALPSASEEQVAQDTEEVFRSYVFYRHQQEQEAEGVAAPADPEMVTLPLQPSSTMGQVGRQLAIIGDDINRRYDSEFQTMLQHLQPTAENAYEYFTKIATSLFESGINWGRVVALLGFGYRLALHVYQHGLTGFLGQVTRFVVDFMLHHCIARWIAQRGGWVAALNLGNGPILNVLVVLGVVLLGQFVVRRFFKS
T5 sequence (Q16548 whole entry): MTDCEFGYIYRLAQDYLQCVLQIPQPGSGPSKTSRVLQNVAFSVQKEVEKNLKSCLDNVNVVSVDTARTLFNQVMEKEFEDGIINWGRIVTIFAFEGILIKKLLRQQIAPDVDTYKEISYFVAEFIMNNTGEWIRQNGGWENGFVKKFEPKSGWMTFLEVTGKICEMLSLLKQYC

[7] = Inhibition of Mcl-1 (172 - 327 residues)/Noxa (unknown origin) by fluorescence polarization assay; parameters: species or system Homo sapiens
[8] = molecular target: T1, Induced myeloid leukemia cell differentiation protein Mcl-1/BH3-interacting domain death agonist; test: Inhibition of Mcl-1/Bid (unknown origin) by fluorescence polarization assay; type: protein assay
[9] = molecular target: T6, Bcl-xL/BH3-interacting domain death agonist (Homo sapiens, UniProt Q07817); test: Inhibition of Bcl-xL/Bid (unknown origin) by fluorescence polarization assay; type: protein assay
T6 sequence (Q07817 whole entry, one chain of several, the tested form may be a part): as the sequence (Q07817 whole entry) above

[10] = molecular target: T7, Induced myeloid leukemia cell differentiation protein Mcl-1/Bcl-2-like protein 11 (Homo sapiens, UniProt Q07820); test: Inhibition of Mcl-1/Bim (unknown origin) by ELISA method; type: protein assay
T7 sequence (Q07820 whole entry): as the sequence (Q07820 whole entry, one chain of several, the tested form may be a part) above
T7 sequence (O43521 whole entry, further chain): as the sequence (O43521 whole entry, further chain) above

[11] = molecular target: BCL2/BCL2L11 (Homo sapiens, UniProt P10415); test: Inhibition of Bcl-2/Bim (unknown origin) by ELISA method; type: protein assay
Chain of BCL2/BCL2L11 (P10415 whole entry, the tested form may be a part): as the sequence (P10415 whole entry, one chain of several) above
Chain of BCL2/BCL2L11 (O43521 whole entry, further chain, the tested form may be a part): as the sequence (O43521 whole entry, further chain) above

[12] = molecular target: T1, Induced myeloid leukemia cell differentiation protein Mcl-1/BH3-interacting domain death agonist; test: Binding affinity to Mcl-1/Bid (unknown origin) by fluorescence polarization assay; type: protein assay
[13] = molecular target: T2, BCL2/BID; test: Binding affinity to Bcl-2/Bid (unknown origin) by fluorescence polarization assay; type: protein assay
[14] = molecular target: T8, Induced myeloid leukemia cell differentiation protein Mcl-1 (Homo sapiens, UniProt Q07820); test: Binding affinity to Mcl-1 (unknown origin) assessed as inhibition constant by fluorescence polarization assay
T8 sequence (Q07820 whole entry): as the sequence (Q07820 whole entry, one chain of several, the tested form may be a part) above

[15] = molecular target: T8, Induced myeloid leukemia cell differentiation protein Mcl-1; test: Binding affinity to wildtype Mcl-1 (unknown origin) assessed as dissociation constant by SPR analysis
[16] = Binding affinity to Mcl-1 H224A (unknown origin) assessed as dissociation constant by SPR analysis; parameters: species or system Homo sapiens
[17] = molecular target: T6, Bcl-xL/BH3-interacting domain death agonist; test: Binding affinity to Bcl-xL/Bid (unknown origin) by fluorescence polarization assay; type: protein assay
[18] = molecular target: T3, Bcl-xL/Bcl-2-like protein 11; test: Inhibition of Bcl-xL/Bim (unknown origin) by ELISA method; type: protein assay
[19] = Cytotoxicity against human MOLP8 cells by caspase-3/7 activation; type: functional, cell-based; settings: MOLP-8
[20] = molecular target: T6, Bcl-xL/BH3-interacting domain death agonist; test: Inhibition of Bcl-xL/Bid complex (unknown origin); type: protein assay
[21] = molecular target: T7, Induced myeloid leukemia cell differentiation protein Mcl-1/Bcl-2-like protein 11; test: Inhibition of GST-tagged Mcl-1/Bim (unknown origin) incubated for 15 mins followed by Bim addition measured after 2 hrs by ELISA method; type: protein assay
[22] = molecular target: T3, Bcl-xL/Bcl-2-like protein 11; test: Inhibition of GST-tagged Bcl-xL/Bim (unknown origin) incubated for 15 mins followed by Bim addition measured after 2 hrs by ELISA method; type: protein assay
[23] = molecular target: MCL1-BAK1 complex (Homo sapiens, UniProt Q07820); test: Inhibition of Mcl-1/Bak (unknown origin) by fluorescence polarization assay; type: protein-complex assay
Chain of MCL1-BAK1 complex (Q07820 whole entry, one chain of several): as the sequence (Q07820 whole entry, one chain of several, the tested form may be a part) above

[24] = molecular target: Bcl-xL/BAK (Homo sapiens, UniProt Q07817); test: Inhibition of Bcl-xL/Bak (unknown origin) by fluorescence polarization assay; type: protein assay
Chain of Bcl-xL/BAK (Q07817 whole entry, one chain of several): as the sequence (Q07817 whole entry) above

## O=C(Nc1ccccc1)C1=CN=c2s/c(=C\c3cn(Cc4ccccc4)c4ccccc34)c(=O)n2[C@H]1c1ccccc1
[1]
  Ki: 2.2 µM
[2]
  Ki: 0.81 µM
[3]
  Ki: 1.1 µM

## O=C(O)CSc1cc(NS(=O)(=O)c2cccs2)c2ccccc2c1O
[4]
  Ki: 37.5 µM

## CC1=C(C2=C(C)C(=O)c3c(cc(O)c(O)c3Cc3ccccc3)C2=O)C(=O)c2cc(O)c(O)c(Cc3ccccc3)c2C1=O
[5]
  IC50: 31 µM
[6]
  IC50: 25 µM

## Cc1ccc(-c2ccc(C(=O)O)c(NS(=O)(=O)c3ccc(OCCCN4CCOCC4)cc3)c2)c2ccccc12
[7]
  IC50: 0.06 µM

## Cc1cc2c(C(C)C)c(O)c(O)c(C=O)c2c(O)c1-c1c(C)cc2c(C(C)C)c(O)c(O)c(C=O)c2c1O [GOSSYPOL]
[8]
  IC50: 1.75 µM
[9]
  IC50: 3.03 µM

## N#CC1=C(NCCC(=O)CCCCC(=O)NCCCCCNc2cccc3c2C(=O)N(C2CCC(=O)NC2=O)C3=O)c2ccc(Sc3ccc(Br)cc3)c3cccc(c23)C1=O (stereo not given)
[10]
  IC50: 0.78 µM
[11]
  IC50: 0.54 µM

## O=C(NCCNS(=O)(=O)c1sccc1-c1ccccc1Oc1ccc(O)c(O)c1)Nc1cc(C(F)(F)F)cc(C(F)(F)F)c1
[12]
  Ki: 0.33 µM
[13]
  Ki: 1.2 µM
[14]
  Ki: 0.298 µM

## N#CC1=C(C#N)c2ccc(Sc3ccc(Br)cc3)c3cccc(c23)C1=O
[15]
  Kd: 0.43 µM
[16]
  Kd: 0.41 µM

## O=C(Cn1nnnc1-c1ccccc1Oc1ccc(Cl)cc1Cl)NNC(=S)Nc1ccc([N+](=O)[O-])cc1
[12]
  Ki: 2 µM
[13]
  Ki: 2.4 µM
[17]
  Ki: 3 µM

## CCOC(=O)C1=C(C)N=c2s/c(=C\c3cn(Cc4ccc(-c5ccccc5)cc4)c4ccccc34)c(=O)n2C1c1ccccc1 (stereo not given)
[14]
  Ki: 0.2 µM

## O=C(c1ccccc1O)c1[nH]c(Cl)c(Cl)c1-n1c(C(=O)c2ccccc2O)cc(Cl)c1Cl
[10]
  IC50: 12.7 µM and 12.5 µM
[18]
  IC50: 19.7 µM and 12 µM

## Cc1c(-c2cccc3c(CCCOc4cccc5ccccc45)c(C(=O)O)n(C)c23)c(COc2ccc(B(O)O)c(C=O)c2)nn1C
[19]
  IC50: 0.075 µM

## Cc1cs/c(=N\C2CCCCC2)n1/N=C/c1ccc(O)c(O)c1O
[20]
  IC50: > 50 µM

## CCc1nn(C)c(CC)c1-c1cccc2c(CCCOc3cccc4ccccc34)c(C(=O)O)n(CCN3CCOCC3)c12
[19]
  IC50: 0.35 µM

## O=C(Nc1ccccc1)C1=CN=c2s/c(=C\c3cn(Cc4ccccc4)c4ccccc34)c(=O)n2[C@@H]1c1ccccc1
[1]
  Ki: 0.36 µM
[2]
  Ki: 1.1 µM
[3]
  Ki: 0.83 µM

## COc1ccc(CSc2ccc(C(=O)c3[nH]c(Cl)c(Cl)c3-n3cc(Cl)c(Cl)c3C(=O)c3ccc(SCc4ccc(OC)cc4)cc3O)c(O)c2)cc1
[21]
  IC50: 0.7 µM
[22]
  IC50: 0.6 µM

## C[n+]1cc2cc3c(cc2c2ccc4cc5c(cc4c21)OCO5)OCO3
[23]
  IC50: 44 µM
[24]
  IC50: 19 µM

## Cc1ccc(-c2ccc(C(=O)O)c(NS(=O)(=O)c3ccccc3)c2)c2ccccc12
[7]
  IC50: 0.4 µM

## O=C(c1ccc(SCc2ccccc2)cc1O)c1[nH]c(Cl)c(Cl)c1-n1cc(Cl)c(Cl)c1C(=O)c1ccc(SCc2ccccc2)cc1O
[21]
  IC50: 0.7 µM
[22]
  IC50: 0.6 µM

## N#CC1=C(NCCC(=O)CCCCC(=O)NCCOCCOCCNc2cccc3c2C(=O)N(C2CCC(=O)NC2=O)C3=O)c2ccc(Sc3ccc(Br)cc3)c3cccc(c23)C1=O (stereo not given)
[10]
  IC50: 11.8 µM
[11]
  IC50: 4.94 µM

## O=C(Cn1nnc(-c2ccccc2Oc2ccc(Cl)cc2Cl)n1)NNC(=S)Nc1ccc([N+](=O)[O-])cc1
[12]
  Ki: 2.2 µM
[13]
  Ki: 1.9 µM
[17]
  Ki: 3.5 µM
